According to patent US8975246B2, “Bile acid or bile salt fatty acid conjugates” (Galmed Research and Development Ltd., priority 2001, dated 2015):

How the values were obtained:
Format in all cases: in vivo
Inbred C57J/L male mice = assay: Serum cholesterol of mice on lithogenic diet
Description: Inbred C57J/L male mice (Jackson Lab., Maine, USA) 4-6 weeks old weighing 20-25 gm were used. They were given their regular diet supplemented with (% w/w) Butter fat 15, Cholesterol 1, Cholic Acid 0.5, Corn Oil 2 (modified from Khanuia et al., Proc. Natnl. Acad. Sci. USA 1995; 92:7729-33) for 4-8 weeks (Lithogenic diet #2). Half of the group were given 3β-arachidylamido-7α,12α-dihydroxy-5β-cholan-24-oic acid at a dose of 150 mg/kg/day suspended in saline by intragastric gavage. The other half were similarly given an equal volume of saline. After 4-8 weeks the animals were anesthetized, heart blood was drawn for analysis. The liver and other organs were removed. Serum cholesterol levels were determined by autoanalyzer.
Another group of C57 J/L male inbred mice (Jackson Laboratories, Maine, USA) 4-6 weeks old weighing 20-25 gm. were given a lithogenic diet (No. 2) for 8 weeks and then a regular diet for another 8 weeks. During the 8 weeks of the regular diet part of the animals were given 3β-arachidylamido-7α,12α-dihydroxy-5β-cholan-24-oic acid by intragastric gavage at a dose of 150 mg/kg/day. After a total of 16 weeks the animals were anesthetized, heart blood was drawn for analysis. Liver and other organs were removed. Serum cholesterol levels were analyzed as above. A third group of animals were given a regular diet throughout the 16 weeks and then similarly analyzed.

C57 male inbred mice = assay: Fatty liver histologic score, mice on Western diet; settings: Western diet + BAFAC 150 mg/kg/day, 4 W
Description: The presence of fatty liver was evaluated by a pathologist unaware of the treatments, scoring coded slides in a blinded manner.
The scoring system was as follows:
C57 male inbred mice (Jackson Lab., Maine, USA) 4-6 weeks old weighing 20-25 gm were used. They were fed a “Western” diet (George et. al. Circulation 2000, 102:1822-27) containing cholesterol 1.5 gm/kg and Fat 42%, Carbohydrates 43%, and Protein 15% (as % of calories). Half were given in addition 150 mg/kg/day of 3β-arachidylamido-7α,12α-dihydroxy-5β-cholan-24-oic acid suspended in saline by intragastric gavage. The other half were similarly given saline only. After 4 weeks the animals were anesthetized and sacrificed. Liver and other organs were removed and placed in formaline prior to histologic examination

human patients = assay: Human study: change in insulin; settings: for Change from Baseline in Insulin, Max / Change from Baseline in Insulin, Mean / Change from Baseline in Insulin, Median / Change from Baseline in Insulin, Min: ITT
Description: The effects of BAFACs on disorders associated with Fatty liver, insulin resistance and altered glucose metabolism were tested on 60 human patients. Experiments were subdivided to 2 dosage regimens: Aramchol 300 mg daily (high dose) and 100 mg daily (low dose) respectively for a total period time of 3 months. The Aramchol:placebo ratio is of 2:1 for the low dose arm, and 1:1 for the high dose arms.
The study period included a 3 month treatment period with Aramchol low dose, or Aramchol high dose, or placebo, and a one month follow-up period. Aramchol was given daily orally. During the treatment period, all patients attended periodic […] (at first month) and subsequently monthly study-center visits in order to assess safety and efficacy of the treatment.
The results are shown using two known in the art principle statistical evaluation on, Intention-To-Treat (ITT) and Per Protocol (PP) populations. The ITT principle asserts that the effect of a treatment policy can be best assessed by evaluation on the basis of the intention to treat a subject (i.e. the planned treatment regimen) rather than the actual treatment given. It has the consequence that subjects allocated to a treatment group should be followed up, assessed and analyzed as members of that group irrespective of their compliance to the planned course of treatment. […] Compliance covers such considerations as exposure to treatment, availability of measurements and absence of major protocol violations.

SMILES: CCCCCCCCCCCCCCCCCCCC(=O)N[C@H]1CC[C@@]2(C)[C@@H](C1)C[C@@H](O)[C@@H]1[C@@H]2C[C@H](O)[C@]2(C)[C@@H]([C@H](C)CCC(=O)O)CC[C@@H]12 [Aramchol, 3β-arachidylamido-7α,12α-dihydroxy-5β-cholan-24-oic acid]
- Serum Cholesterol (mean + StD) (Inbred C57J/L male mice; Lithogenic diet 2 + BAFAC II 150 mg/kg/day by gavage, 4 W): 143 (19.8) mg %
- Serum Cholesterol (mean + StD) (Inbred C57J/L male mice; Lithogenic diet 2 + BAFAC II 150 mg/kg/day by gavage, 6 W): 125 (10.8) mg %
- Serum Cholesterol (mean + StD) (Inbred C57J/L male mice; Lithogenic diet 2 + BAFAC II 150 mg/kg/day by gavage, 8 W): 139 (0.7) mg %
- Serum Cholesterol (mean + StD) (Inbred C57J/L male mice; Lithogenic diet 2 for 8 W then regular diet 8 W with BAFAC II 150 mg/kg/day, total 16 W): 65 (6.8) mg %
- Fatty Liver Scores: number of animals with score 0 (C57 male inbred mice; n 14, 0 - No fatty liver): 12
- Fatty Liver Scores: number of animals with score 1 (C57 male inbred mice; n 14, 1 - Minimal fatty liver): 1
- Fatty Liver Scores: number of animals with score 4 (C57 male inbred mice; n 14, 4 - Severe fatty liver): 1
- Fatty Liver Score, mean (C57 male inbred mice; score 0 (no fatty liver) to 4 (severe, >50% of liver surface)): 0.35
- Change from Baseline in Insulin, Max (human patients; Aramchol 100 mg/d oral): 38.9
- Change from Baseline in Insulin, Mean (human patients; Aramchol 100 mg/d oral): 5.6
- Change from Baseline in Insulin, Median (human patients; Aramchol 100 mg/d oral): 2.5
- Change from Baseline in Insulin, Min (human patients; Aramchol 100 mg/d oral): −7.4
- Change from Baseline in Insulin, Max (human patients; Aramchol 300 mg/d oral): 9.1
- Change from Baseline in Insulin, Mean (human patients; Aramchol 300 mg/d oral): −21.1
- Change from Baseline in Insulin, Median (human patients; Aramchol 300 mg/d oral): 0.9
- Change from Baseline in Insulin, Min (human patients; Aramchol 300 mg/d oral): −367.5
- basal insulin levels (in words) (human patients; tested subjects, Table 8): reduces basal insulin levels
